Test results as given in patent publication US6774116B2, “Prodrugs via acylation with cinnamate” (priority 2001, dated 2004).

Columns and labels:
Type in all cases: in vivo, nude mice
[1] = tested on: Human lung carcinoma cell line H2987; assay: Treatment of human lung carcinoma H2987 xenograft with A—Z—CINN 441
Experimental: MAb BR110 is a murine mAb to a 66-kDa glycoprotein that is found on the cell surface of human lung, colon and breast tumor cells. Human lung carcinoma cell line H2987 is grown in cell culture as described (U.S. Pat. No. 5,840,854). 1×10^7 cells/mouse are implanted s.c. into a nude mice. When the tumors reached 150-200 mm^3 in size, A—Z—CINN 441 is used to treat the tumor as follows: 0.1-1.0 mg of A—Z—CINN 441 (1 mg mAb protein with ˜25 ug paclitaxel covalently attached) is injected i.v. via tail vein into mice with the tumor. After 6 hours, mice that receive 0.1, 0.5 or 1.0 mg of A—Z—CINN 441 are anesthetized with a Ketamine/Rompun mixture. A 16G needle is used to create a hole in the skin and a 1 mm fiber optic probe is inserted up to the tumor. The tumor is exposed to white light for 5 minutes with a power of about 0.5 mW/cm^2. […] All mice are kept under “red lights” to prevent light activation of the drug, for 72 hours post injection, then returned to normal light/dark cycle. […] Groups that receive antibody and free drug (unlinked) show tumor growth, and by 28 days the mice either die or have tumors>800 mm^3.

[2] = tested on: Human breast cancer xenographs; assay: Treatment of human breast carcinoma xenographs with A—Z—CINN 361
Experimental: Human breast cancer xenographs are prepared as described (Burak et.al. 1998. Nucl. Med. Biol. 25:633-637) Xenographs are implanted s.c. into a nude mice. When the tumor reached 150-200 mm^3 in size, A—Z—CINN 361 is used to treat the tumor as follows; 0.1-1.0 mg of A—Z—CINN 361 (1 mg mAb protein with ˜25 ug paclitaxel covalently attached) is injected i.v. via tail vein into mice with the tumor. After 6 hours, mice that receive 0.1, 0.5 or 1.0 mg of A—Z—CINN 361 are anesthetized with a Ketamine/Rompun mixture. A 16G needle is used to create a hole in the skin and a 1 mm fiber optic probe is inserted up to the tumor. The tumor is exposed to white light for 5 minutes with a power of about 0.5 mW/cm^2. […] All mice are kept under “red lights” to prevent unnecessary light exposure and activation of A—Z—CINN 361 for 72 hours post injection, then returned to normal light/dark cycle.

[3] = tested on: Human colon carcinoma cell line LS-180; assay: Treatment of human colon carcinoma LS-180 xenograft with A—Z—CINN 551
Experimental: Human colon carcinoma cell line LS-180 is grown in cell culture as described (Kinuya et.al. 2001. J. Nucl. Med. 42:596-600). 1×10^7 cells/mouse are implanted s.c. into nude mice. When the tumors reached 150-200 mm^3 in size, A—Z—CINN 551 is used to treat the tumor as follows; 0.1-1.0 mg of A—Z—CINN 551 (1 mg mAb protein with ˜25 ug paclitaxel covalently attached) is injected i.v. via tail vein into mice with the tumor. After 6 hours, mice that received 0.1, 0.5 or 1.0 mg of A—Z—CINN […] are anesthetized with a Ketamine/Rompun mixture. A 16 G needle is used to create a hole in the skin and a 1 mm fiber optic probe is inserted up to the tumor. The tumor is exposed to white light for 5 minutes with a power of about 0.5 mW/cm^2. […] All mice are kept under “red lights” to prevent unnecessary light exposure and activation of A—Z—CINN 551 for 72 hours post injection, then returned to normal light/dark cycle.

[4] = in 7 days, light treatment 6 hours after i.v. injection, 0.1, 0.5 or 1.0 mg

For “BR110-mAb-S-Mal-PEG3400-N—CINN-paclitaxel [A—Z—CINN 441]”, the tumor shrinkage [1, 4] was over 50%, the “tumors by 28 days” value ([1]; light treatment) was “not detectable” and the “tumor size at 28 days” value ([1]; no light stimulation) was “smaller than 50 mm”.
In the case of “NR-LU-10 mAb-S-Mal-PEG3400-N—CINN-paclitaxel [A—Z—CINN 361]”, the tumor shrinkage [2, 4] is reported as over 50%, the “tumor size by 28 days” value ([2]; light treatment) is reported as “less than 50 mm^3” and the “tumor size at 28 days” value ([2]; no light stimulation) is reported as “smaller than 100 mm^3”.
In the case of “A7-mAb-S-Mal-PEG3400-N—CINN-paclitaxel [A—Z—CINN 551]”, the tumor shrinkage [3, 4] is reported as over 50%, the “tumor size by 28 days” value ([3]; light treatment) is reported as “less than 50 mm^3” and the “tumor size at 28 days” value ([3]; no light stimulation) is reported as “smaller than 100 mm^3”.
